Read-outs that look alike come from different tables or passages of the source.
Columns and labels:
[1] = biological target: T1, IN-GCN2 interaction (6xHis-IN / GST-GCN2) (UniProt P04585+Q9P2K8); test: biochemical; assay type: binding, HIV-1 IN; human GCN2; settings: for IN-GCN2 interaction (%): screen, single dose 100 µM, single replicate, residual AlphaLISA signal normalized to DMSO control; for IC50: IC50, inhibition of IN-GCN2 interaction
[2] = tested on: HIV-1Laï; test: microbe, parasite or virus in culture; assay type: cell-based; settings: for EC50: 24 h infection, read-out: EC50
[3] = biological target: T2, GCN2 (Homo sapiens, UniProt Q9P2K8); test: In vitro phosphorylation assay: GCN2 autophosphorylation; assay type: biochemical; settings: GCN2 25 nM, IN 700 nM; compound 10 µM to 4.6 nM
T2 sequence (Q9P2K8 192-1024): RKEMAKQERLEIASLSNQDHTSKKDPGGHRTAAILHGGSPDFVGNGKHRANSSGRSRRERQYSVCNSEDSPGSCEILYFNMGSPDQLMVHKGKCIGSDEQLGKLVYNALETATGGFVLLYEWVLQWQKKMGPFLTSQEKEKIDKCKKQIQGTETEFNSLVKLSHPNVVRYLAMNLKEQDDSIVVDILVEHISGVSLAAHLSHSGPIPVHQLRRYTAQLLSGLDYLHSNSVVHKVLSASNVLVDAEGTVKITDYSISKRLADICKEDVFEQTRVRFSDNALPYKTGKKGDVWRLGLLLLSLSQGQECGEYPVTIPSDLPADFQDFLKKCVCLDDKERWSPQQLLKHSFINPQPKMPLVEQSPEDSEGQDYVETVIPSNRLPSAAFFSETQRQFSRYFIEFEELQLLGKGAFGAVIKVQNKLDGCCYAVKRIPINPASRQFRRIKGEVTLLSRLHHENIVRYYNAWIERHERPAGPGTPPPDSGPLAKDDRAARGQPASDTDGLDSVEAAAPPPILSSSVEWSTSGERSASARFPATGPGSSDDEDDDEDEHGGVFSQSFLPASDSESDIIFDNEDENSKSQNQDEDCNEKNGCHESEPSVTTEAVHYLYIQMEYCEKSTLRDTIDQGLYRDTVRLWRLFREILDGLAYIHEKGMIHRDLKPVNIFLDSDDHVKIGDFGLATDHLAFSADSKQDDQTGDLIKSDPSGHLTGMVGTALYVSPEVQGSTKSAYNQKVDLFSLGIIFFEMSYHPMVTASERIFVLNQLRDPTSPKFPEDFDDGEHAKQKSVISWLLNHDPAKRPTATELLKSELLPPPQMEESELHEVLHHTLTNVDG

[4] = biological target: HIV-1 IN (Human immunodeficiency virus type 1 group M subtype B, UniProt P04585); test: Strand transfer (ST) gel-based assay; assay type: biochemical; settings: for apparent IC50, inhibition of ST activity, in words: 400 nM IN, 20 nM substrate, 1 h 37 °C
[5] = Cytotoxicity (CellTiter 96 AQueous); assay type: cell-based; settings: human
[6] = biological target: T3, phosphorylation of IN by GCN2 (UniProt P04585+Q9P2K8); test: In vitro phosphorylation assay: phosphorylation of IN by GCN2; assay type: biochemical, HIV-1 IN; human GCN2; settings: GCN2 25 nM, IN 700 nM; compound 10 µM to 4.6 nM
[7] = biological target: T1, IN-GCN2 interaction (6xHis-IN / GST-GCN2); set-up: method as in earlier work; settings: single dose 100 µM, previous data ref 26; cited from earlier work
[8] = biological target: T2, GCN2; set-up: method as in earlier work; settings: previous study ref 26; cited from earlier work
[9] = biological target: T3, phosphorylation of IN by GCN2; set-up: method as in earlier work; settings: previous study ref 26; cited from earlier work
[10] = tested on: P4 MAGI CCR5+ cells; test: Cytotoxicity (CellTiter 96 AQueous); assay type: cell-based
[11] = biological target: GST-GCN2, active truncated human GCN2 (192-1024) with an N-terminal GST tag (human) (UniProt Q9P2K8); test: AlphaScreen or HTRF
[12] = Human immunodeficiency virus 1, MAGI, 24 h
[13] = SAR study, fresh dilutions from powder, at least three independent experiments
[14] = plated compounds of the screen, dose-response 100 µM to 46 nM (Figure 1B), n = 9

With CCC1(O)CC(OC2CC(N(C)C)C(OC3CC(O)C(OC4CCC(=O)C(C)O4)C(C)O3)C(C)O2)c2c(cc3c(c2O)C(=O)c2c(O)ccc(O)c2C3=O)C1C(=O)OC (centres unmarked) [NSC18334, cinerubin A] the “IN-GCN2 interaction (%)” value [1] was 5.47%, the EC50 [2, 12] was 0.79 µM and the “effect on GCN2 autophosphorylation, in words” value [3] was “inhibited GCN2 autophosphorylation”. The “apparent IC50, inhibition of ST activity, in words” value [4] was “low-micromolar”, the CC50 ([5]; 24 h, read-out: CC50) was > 5 µM and the “inhibition of IN phosphorylation, in words” value [6] was “full inhibition”.
For COc1cc2c(cc3c4c(cc5c(c42)OCO5)CCN3C)c(OC)c1OC [NSC785155], the IC50 [1, 13] was 5.6 µM, the IC50 [1, 14] was 14.5 µM and the “IN-GCN2 interaction (%)” value [1] was 8.90%. For the same molecule, the EC50 [2, 12] was > 5 µM, the “effect on GCN2 autophosphorylation, in words” value [3] was “limited impact” and the “inhibition of ST activity, in words” value ([4]; 111 µM to 51 nM) was “unable to fully inhibit ST even at 111 µM”. The CC50 at 24 h ([5]; P4 MAGI CCR5+ cells, 24 h, read-out: CC50) was > 5 µM and the “inhibition of IN phosphorylation, in words” value [6] was “partially inhibited”.
In the case of COc1cccc2c1C(=O)c1c(O)c3c(c(O)c1C2=O)C[C@@](O)(C(C)=O)C[C@@H]3O[C@H]1C[C@H](N)[C@H](O)[C@H](C)O1 [NSC82151], the “IN-GCN2 interaction (%)” value [1] is given as 50.79% and the “inhibition of IN-GCN2 interaction” value [7] is given as “around 70%”.
For O=C1c2c(O)ccc(O)c2C(=O)c2c(NCCNCCO)ccc(NCCNCCO)c21 [NSC279836, mitoxantrone, reference compound], the IC50 [1, 13] is listed as 2.4 µM, the “concentration up to which GCN2 autophosphorylation was not affected” value [8] is listed as 300 µM and the CC50 at 24 h [5] is listed as > 5 µM. For the same molecule, the “apparent IC50, inhibition of IN phosphorylation” value [9] was “low micromolar range”.
With COc1cccc2c1C(=O)c1c(O)c3c(c(O)c1C2=O)CC(O)(C(=O)CO)CC3OC1CC(N2CCOCC2C#N)C(O)C(C)O1 (centres unmarked) [Compound 1p] the IC50 [1, 13] was 61.1 µM, the CC50 ([5]; 24 h, read-out: CC50) was < 0.002 µM and the “lowest dose used, at which compound was still toxic” value ([10]; human) was “about 2 nM”.
In the case of COc1cc2c3c(c1O)-c1cc(N(Cc4ccccc4)Cc4ccccc4)ccc1CC3N(C)CC2 (centres unmarked) [NSC785176], the CC50 ([10]; 24 h) is reported as > 5 µM.
In the case of CC(=O)[C@]1(O)Cc2c(O)c3c(c(O)c2[C@@H](O[C@H]2C[C@H](N)[C@H](O)[C@H](C)O2)C1)C(=O)c1ccccc1C3=O [NSC256439], the “inhibition of IN-GCN2 interaction” value [7] is listed as “around 70%”.
For “Recombinant full-length HIV-1 integrase (6xHis-IN fusion protein) (enzyme)”, the AlphaLISA signal (DMSO control, plate 1) [11] was 5610 Alpha counts and the AlphaLISA signal (DMSO control, plate 2) [11] was 3900 Alpha counts.
In the case of CC1Oc2cc3c(-c4c(O)cc(O)c5c(O)c6c(cc45)OC(C)C(C)C6=O)c(O)cc(O)c3c(O)c2C(=O)C1C (centres unmarked) [NSC345647, chaetochromin], the IC50 [1, 14] is reported as 5.2 µM, the “IN-GCN2 interaction (%)” value [1] is reported as 6.36% and the “effect on HIV replication, in words” value [2] is reported as “inactive”. The EC50 [2] was > 5 µM, the “effect on GCN2 autophosphorylation, in words” value [3] was “inhibited GCN2 autophosphorylation” and the “apparent IC50, inhibition of ST activity, in words” value [4] was “mid-nanomolar concentration range”. For the same molecule, the CC50 at 24 h ([5]; 24 h, read-out: CC50) was > 5 µM and the “inhibition of IN phosphorylation, in words” value [6] was “full inhibition”.
